# In publication PMC12040169 (PLOS Biology, 2025):
# Assay: in vitro
# Conditions: human, hela cells
row,Compound,"viability at 28.5 h, 10 µM [%]"
1,CNC(=O)Oc1ccc(C)cc1C(=O)N(C)C [CBK012319],111

# Same assay, conditions: human, hela cells, % viability
row,Compound,"viability at 28.5 h, 10 µM [%]"
1,COc1ccccc1C(CN)C1CCCCC1 (stereo not shown) [CBK009878],99.7
2,CC1(C)CC(=O)N(C2CCCCC2)C(=O)C1C#N (stereo not shown) [CBK009894],107
3,COc1ccccc1CC(c1ccccc1)C1CN(C)CCO1 (stereo not shown) [CBK009925C],116
4,O=C(Oc1n[nH]c2ccccc12)c1ccc(Cl)cc1 [CBK009976],100
5,N#CC(c1ccc(Br)cc1)n1ccnc1 (stereo not shown) [CBK009985],85.6
6,CN(C)CCC(O)(c1ccccc1)c1cc2c(cc1Cl)CCC2 (stereo not shown) [CBK010000C],99.5
7,CCn1cnc2c1CCC(CN/C(=N/C(=O)c1ccccc1)NC)C2 (stereo not shown) [CBK010036],103
8,CCn1cnc2c1CC/C(=N\O)C2 [CBK010044],80.6
9,CC(C)NC(=S)N1CC[C@@]2(NC(N)=O)N=C(N)O[C@H]2C1 [CBK010049],93.1
10,CCN(CC)CCn1c(-c2ccccc2)c(OCCO)c2ccccc2c1=O [CBK010078],96.9
11,CCOc1ccc(N)cc1S(N)(=O)=O [CBK010112],93.2
12,CN(C)CCC1OC(=O)N(c2ccccc2)C1=O (stereo not shown) [CBK010134C],107
13,Nc1ccc2c(c1)/C(=C/c1c[nH]c3ncccc13)C(=O)N2 [CBK010155T],103
14,CC(=O)C1=C(C)N2C(=Nc3ccccc3C2(C)C)S1 [CBK010180C],85.5
15,CCCN[C@@H]1CCc2cc(CNC(=O)c3ccc(C#N)cc3)ccc2C1 [CBK010211C],101
16,CC(=O)NCC1CC(c2ccc(C3=CCN(C(C)=O)CC3)cc2)=NO1 (stereo not shown) [CBK010245],86.8
17,NC1OC(COC(=O)c2ccccc2)C(OC(=O)c2ccccc2)C1OC(=O)c1ccccc1 (stereo not shown) [CBK010282],95.3
18,NC12CC(=O)CC(CC(c3ccccc3)C1)C2 (stereo not shown) [CBK010323C],114
19,CCCCCCSc1ccc(C(=O)CCCN2CCOCC2)cc1 [CBK010344],116
20,COc1cccc(N2CCN(CCCOc3ccc(F)cc3)CC2)n1 [CBK010355F],94.6
21,CC1CCN(c2ccc(C(=O)CCCO)cc2)CC1 [CBK010358],91.8
22,CC(=O)NCC1CC(N2CCSCC2)=NO1 (stereo not shown) [CBK010367],85
23,CC(=O)NCC1CC(c2ccc(OC(C)=O)c(Cl)n2)=NO1 (stereo not shown) [CBK010396],88.8
24,N#Cc1cn(Cc2ccco2)c(=O)[nH]c1=O [CBK010407],101

row,Compound,"viability at 28.5 h, 10 µM [%]"
1,COc1cc(C2=NS(=O)(=O)NC3=C2CCCC3)cc(OC)c1OC [CBK010423],90.3
2,CN(C(=O)c1ccccc1)[C@]1(C)C2CC(C[C@@H]2O)C1(C)C (stereo partly shown) [CBK010498],102
3,CN(C)[C@H]1CCCC[C@@H]1OC(=O)c1ccc(C(F)(F)F)cc1 [CBK010550F],90.1
4,C/C(=N\O)c1oc2ccccc2c(=O)c1O [CBK010642],98.6
5,C1=NC2C(COCc3ccccc3)CCC2N1c1ccccc1 (stereo not shown) [CBK010679],107
6,CCN(CC)CCNC(=O)c1cc(=O)c2ccccc2o1 [CBK010691],114
7,CCNc1cccnc1N1CCN(C(=O)CCC(=O)c2ccc(NS(C)(=O)=O)cc2)CC1 [CBK010701],98.2
8,COc1ccc2c(c1)c(C(NCc1cccc(C(F)(F)F)c1)C(N)=O)nn2Cc1ccccc1 (stereo not shown) [CBK010715],100
9,CC(C)NC(=S)NC(=O)C1CCC1 [CBK010718],86.2
10,CCc1ccc(C(=O)c2ccccc2C(=O)O)cc1 [CBK010776],93.7
11,CNc1ccc(OC(=O)c2ccco2)cc1 [CBK010779],88.1
12,Cc1c(C(=O)N2CCOCC2)sc2nc(-c3ccc(Cl)cc3)nn12 [CBK010863],91.4
13,N#CC1CCC(CNC(=O)c2sc3ccccc3c2Cl)CC1 (stereo not shown) [CBK010864],106
14,Cc1cc(NC(=O)c2cc(Cl)sc2Cl)no1 [CBK010872],84.4
15,O=C(O)CCCc1nc(-c2ccccn2)no1 [CBK010880],94.8
16,COc1ccc2c(c1)CCC1CN(C)N=C21 (stereo not shown) [CBK010890],100
17,NC(=O)c1ccsc1NC(=O)C(F)(F)F [CBK010915],96.4
18,O=C(O)CCCc1ccc2sc3ccccc3c2c1 [CBK010971],84.8
19,Cn1c(Cc2nn(C)c(=O)c3ccccc23)nnc1SCC(=O)C(C)(C)C [CBK010985],105
20,CC12CCCC(=O)N1C(CO)C(c1ccccc1)O2 (stereo not shown) [CBK011013],91.2
21,CC(C)(C)C(=O)CSc1nnc(Cn2cnc(Cl)c2Cl)o1 [CBK011055],81.2
22,Cn1nnnc1Sc1cc(=O)n(C)c(=O)n1C [CBK011072],114
23,c1ccc(-c2nnc(Cn3cncn3)o2)cc1 [CBK011113],88
24,COc1ccc(CN2C(=O)CS(=O)(=O)CC2=O)cc1OC [CBK011127],86.4

row,Compound,"viability at 28.5 h, 10 µM [%]"
1,COc1nc(Cl)nc(Oc2ccc(F)cc2)n1 [CBK011279],122
2,N#Cc1nccnc1N1CCN(Cc2ccc3c(c2)OCO3)CC1 [CBK011284],83.3
3,O=c1cc2ncc(-c3ccncc3)cn2[nH]1 [CBK011300],98.3
4,COc1ccc2c(c1)N1CCCN=C1N2C [CBK011358C],90.8
5,CSCCC(C(=O)O)N1CNC(=S)NC1 (stereo not shown) [CBK011382],92.3
6,O=C1CCCCC1SCn1nnc2ccccc21 (stereo not shown) [CBK011412],94.8
7,COc1cc(OC)c2c(c1)OCC1CON(C)C21 (stereo not shown) [CBK011446],95.6
8,CNc1snc(N2CCOCC2)c1C#N [CBK011453],93
9,COc1ccc2c(c1OC)C(=O)N1C2SC(C)(C)C1C(=O)O (stereo not shown) [CBK011479],98.9
10,O=C(NC1CCCCC1)C1CCC1 [CBK011511],96.5
11,CC(C)C[C@H]([C@@H]1C[C@@H](C(C)C)C(=O)O1)N1C(=O)c2ccccc2C1=O [CBK011526],93.9
12,CCN(CC)Cc1nccn1-c1ccc([N+](=O)[O-])cc1C(=O)c1ccccc1Cl [CBK011562F],105
13,COc1ccc(C2CNC(=O)C2)cc1OC1CCCC1 (stereo not shown) [CBK011603],86.5
14,CCC(C)C(=O)O[C@H]1C[C@@H](C)C=C2C=C[C@H](C)[C@H](CC[C@@H]3C[C@@H](O)CC(=O)O3)[C@H]21 (stereo partly shown) [CBK011646],85.2
15,O=C(O)Cc1ccc(-c2ccccc2)cc1 [CBK011660],104
16,O=c1[nH]c(=O)n(C2CC(O)C(CO)O2)cc1F (stereo not shown) [CBK011695],49.6
17,CCC(C(=O)O)c1ccc(-n2sc3ccccc3c2=O)cc1 (stereo not shown) [CBK011773],105
18,Cc1nc(Cl)c(C(=O)NCCc2ccc(S(=O)(=O)NC(=O)NC3CCCCC3)cc2)nc1C [CBK011777],91.3
19,O=C(COc1cccc(Cl)c1)NCCc1ccc(S(=O)(=O)NC(=O)NC2CCCCC2)cc1 [CBK011798],93.4
20,CCCNCCc1ccc2c(c1)C(=O)N(Cc1ccc(OC)cc1)C2=O [CBK011826C],87.3
21,CNc1cc(NS(=O)(=O)c2ccc(N)cc2)nc(NC)n1 [CBK011865C],96.1
22,COc1ccc(C(O)CNC(C)C)c2c(C)c(C)oc12 (stereo not shown) [CBK011885C],97
23,O=C(NC1CCCCC1)NS(=O)(=O)c1ccc(CCNC(=O)c2cccs2)cc1 [CBK011888],86.3
24,NCC(=O)N(CCC1CCCC1)c1cccc2ccccc12 [CBK011922C],88.2

row,Compound,"viability at 28.5 h, 10 µM [%]"
1,COc1ccccc1C(C)CN(C)C (stereo not shown) [CBK011948C],91.2
2,CCCCOc1ccc(C(=O)OC(Cc2cccc3ccccc23)CN(CC)CC)cc1 (stereo not shown) [CBK011965C],87.7
3,Cc1cn(C2CC(O)C(CO)O2)c(=O)[nH]c1=O (stereo not shown) [CBK011998],93.3
4,O=C(O)CCCCC1SCC2NC(=O)NC21 (stereo not shown) [CBK012026G],105
5,Cc1cc(N)cc(C)c1O [CBK012062C],89.9
6,CC(=O)c1c[nH]c(=O)[nH]c1=O [CBK012093],115
7,CCN(CC)C(=O)c1cccc(OC)c1 [CBK012105],101
8,CC(C)(CN)c1ccccc1 [CBK012106C],81.6
9,O=C(O)CCN1CCCCC1 [CBK012168C],103
10,COc1ccc(CC(=O)c2ccc(O)cc2O)cc1 [CBK012203],88.2
11,CN(C)CCN(Cc1ccccc1)c1ccccc1 [CBK012223C],114
12,CS(=O)(=O)NC1CCCCC1 [CBK012234],89.3
13,CC(=O)Nc1ccc(/C=N/c2ccccc2)cc1 [CBK012258],96.4
14,OCC1OC(n2cnc3c(S)ncnc32)C(O)C1O (stereo not shown) [CBK012260],64.5
15,Nc1nc(N2CCCCC2)nc2ccccc12 [CBK012270],114
16,Cc1cccc(C(N)=O)c1O [CBK012294],112
17,Cc1cc2nc3c(nc2cc1C)CCNCC3 [CBK012302],91.1
18,CCCCC(c1ccc(Cl)cc1)N(CCN(C)C)c1ccccn1 (stereo not shown) [CBK012315F],86.3
19,CCOC(=O)NC(=O)c1ccccc1 [CBK012359],108
20,CC(=O)Oc1cc2c(c(OC(C)=O)n1)C(C)NC2=O (stereo not shown) [CBK012390],94.9
21,O=C(O)CC1CCC2(CC1)Cc1ccccc1C2 [CBK012397],89.8
22,CC(C(=O)N(C)C)n1cccc1 (stereo not shown) [CBK012421],86.4
23,COC(=O)c1c(C)c(C(C)=O)n(C)c1C [CBK012459],117
24,COc1ccc(CCNCC2OCCCc3cc(OC)c(OC)cc32)cc1OC (stereo not shown) [CBK012466C],94

# Same assay, conditions: human, hela cells, % viability, bulk resorufin, single well
row,Compound,"viability at 28.5 h, 10 µM [%]"
1,COc1cc(C2OCCNC2C)c(OC)cc1C (stereo not shown) [CBK010347C],90.7
2,CNC(Cc1ccccc1)c1ccccc1OC (stereo not shown) [CBK011943C],88.6
3,C1=C(c2ccccc2)CCNC1 [CBK012268C],104
